Consider five molecules from patent US9617253B2, “Molecules having pesticidal utility, and intermediates, compositions, and processes, related thereto” (Dow AgroSciences LLC, priority 2015, dated 2017).

For orientation: mortality means the share of the test organisms that died.

Common to all, as to type: in vivo
In data set [1] the test system is Yellow Fever Mosquito (Aedes aegypti, AEDSAE). The note with it: about 1 day-old larvae, from 4000 ppm DMSO master plate, room temperature, scored after 3 days. As to the method: Certain molecules disclosed in this document were tested against YFM using procedures described in the following paragraph. In the reporting of the results, the “YFM Rating Table” was used (See Table Section).
Master plates containing 400 μg of a molecule dissolved in 100 μL of dimethyl sulfoxide (DMSO) (equivalent to a 4000 ppm solution) are used. A master plate of assembled molecules contains 15 μL per well. To this plate, 135 μL of a 90:10 water/acetone mixture is added to each well. A robot (Biomek® NXP Laboratory Automation Workstation) is programmed to dispense 15 μL aspirations from the master plate into an empty 96-well shallow plate (“daughter” plate). There are 6 reps (“daughter” plates) created per master. The created “daughter” plates are then immediately infested with YFM larvae.
The day before plates are to be treated, mosquito eggs are placed in Millipore water containing liver powder to begin hatching (4 g into 400 mL). After the “daughter” plates are created using the robot, they are infested with 220 μL of the liver powder/larval mosquito mixture (about 1 day-old larvae). After plates are infested with mosquito larvae, a non-evaporative lid is used to cover the plate to reduce drying. Plates are held at room temperature for 3 days prior to grading. After 3 days, each well is observed and scored based on mortality. The results are indicated in the table entitled “Table ABC: Biological Results” (See Table Section).

In data set [2] the test system is Cabbage Looper (Trichoplusia ni, TRIPNI). Description: Bioassay on Cabbage Looper (CL), 128-well diet tray assay. The note with it: 168 h, second instar CL larvae, 50 μg/cm^2 on artificial diet, 25° C., five to seven days, average of eight wells, read-out: CL % Control (or Mortality) rating. As to the method: (§1) Certain molecules disclosed in this document were tested against BAW and CL using procedures described in the following examples. In the reporting of the results, the “BAW & CL Rating Table” was used (See Table Section).
Bioassays on CL were conducted using a 128-well diet tray assay. One to five second instar CL larvae were placed in each well (3 mL) of the diet tray that had been previously filled with 1 mL of artificial diet to which 50 μg/cm^2 of the test molecule (dissolved in 50 μL of 90:10 acetone-water mixture) had been applied (to each of eight wells) and then allowed to dry. Trays were covered with a clear self-adhesive cover, vented to allow gas exchange, and held at 25° C., 14:10 light-dark for five to seven days. Percent mortality was recorded for the larvae in each well; activity in the eight wells was then averaged. The results are indicated in the table entitled “Table ABC: Biological Results” (See Table Section).

Data set [3] relates to Beet Armyworm (Spodoptera exigua, LAPHEG). Description: Bioassay on Beet Armyworm (BAW), 128-well diet tray assay. As to conditions: 168 h, second instar BAW larvae, 50 μg/cm^2 on artificial diet, 25° C., five to seven days, average of eight wells, read-out: BAW % Control (or Mortality) rating. The procedure: as §1
Bioassays on BAW were conducted using a 128-well diet tray assay. One to five second instar BAW larvae were placed in each well (3 mL) of the diet tray that had been previously filled with 1 mL of artificial diet to which 50 μg/cm^2 of the test molecule (dissolved in 50 μL of 90:10 acetone-water mixture) had been applied (to each of eight wells) and then allowed to dry. Trays were covered with a clear self-adhesive cover, vented to allow gas exchange, and held at 25° C., 14:10 light-dark for five to seven days. Percent mortality was recorded for the larvae in each well; activity in the eight wells was then averaged. The results are indicated in the table entitled “Table ABC: Biological Results” (See Table Section).

Consider `CCCc1ccc(C)cc1N1C(=O)CS/C1=N\C(=O)Nc1ccc(COc2ncn(-c3ccc(OC(F)(F)F)cc3)n2)cc1` [F5, (Z)-1-(3-(5-Methyl-2-propylphenyl)-4-oxothiazolidin-2-ylidene)-3-(4-(((1-(4-(trifluoromethoxy)phenyl)-1H-1,2,4-triazol-3-yl)oxy)methyl)phenyl)urea], for which, in data set [1], the “YFM % Control (or Mortality) rating” value is “A (80-100)”. For the same molecule, the mortality at 50 µg/cm2 in data set [2] and in data set [3] was 50 to 100% in each case.
Take `COCc1ccc(C)cc1N1C(=O)CS/C1=N\C(=O)Nc1ccc(COc2ncn(-c3ccc(OC(F)(F)F)cc3)n2)cc1` [F8, (Z)-1-(3-(2-(Methoxymethyl)-5-methylphenyl)-4-oxothiazolidin-2-ylidene)-3-(4-(((1-(4-(trifluoromethoxy)phenyl)-1H-1,2,4-triazol-3-yl)oxy)methyl)phenyl)urea]: the “YFM % Control (or Mortality) rating” value in data set [1] is reported as “A (80-100)”. Further, the mortality at 50 µg/cm2 in data set [2] and in data set [3] was 50 to 100% each time.
In the case of `COCc1ccc(C)cc1N1C(=O)CS/C1=N\C(=O)Nc1ccc(COc2ncn(-c3ccc(OC(F)(F)F)cc3)n2)c(F)c1` [F9, (Z)-1-(3-Fluoro-4-(((1-(4-(trifluoromethoxy)phenyl)-1H-1,2,4-triazol-3-yl)oxy)methyl)phenyl)-3-(3-(2-(methoxymethyl)-5-methylphenyl)-4-oxothiazolidin-2-ylidene)urea], the “YFM % Control (or Mortality) rating” value in data set [1] is listed as “A (80-100)”. The mortality at 50 µg/cm2 in data set [2] and in data set [3] was 50 to 100% throughout.
Regarding `CCCc1ccc(C)cc1N1C(=O)CS/C1=N\C(=O)Nc1ccc(OCc2ncn(-c3ccc(OC(F)(F)F)cc3)n2)cc1` [F17, (Z)-1-(3-(5-Methyl-2-propylphenyl)-4-oxothiazolidin-2-ylidene)-3-(4-((1-(4-(trifluoromethoxy)phenyl)-1H-1,2,4-triazol-3-yl)methoxy)phenyl)urea], in data set [1], the “YFM % Control (or Mortality) rating” value is “A (80-100)”. For the same molecule, the mortality at 50 µg/cm2 in data set [2] and in data set [3] was 50 to 100% throughout.
With `Cc1ccc(C(C)C)c(N2C(=O)CS/C2=N\C(=O)Nc2cc(F)c(OCc3ncn(-c4ccc(OC(F)(F)F)cc4)n3)c(F)c2)c1` [F41, (Z)-1-(3,5-Difluoro-4-((1-(4-(trifluoromethoxy)phenyl)-1H-1,2,4-triazol-3-yl)methoxy)phenyl)-3-(3-(2-isopropyl-5-methylphenyl)-4-oxothiazolidin-2-ylidene)urea], the “YFM % Control (or Mortality) rating” value in data set [1] is recorded as “A (80-100)”. Moreover, the mortality at 50 µg/cm2 in data set [2] and in data set [3] was 50 to 100% in each case.
